Source: a melting point compilation (Tetko et al.; mined from patent text by program, amines drawn as free bases though some values may be those of a salt)

Compound	melting point
O=C(O)[C@H](CC1CCCCC1)n1cccc1	78 to 80 °C
Nc1nnc(-c2ccc(CN3CCCCCC3)s2)o1	232 to 234 °C
COCc1ccc(C)c(NC(=O)CC23CC4CC(CC(C4)C2)C3)c1	127 to 128 °C
CC(=O)c1ccc(N)c(Br)c1	59 to 62 °C
CCOC(=O)c1ccc(Oc2cccc3[nH]c4cnc(C(=O)OC(C)C)c(COC)c4c23)o1	191 to 192 °C
COc1cc(C2CCCCC2)c(Cl)cc1CCO	78 to 79 °C
CCOC(=O)c1c(C)nc(-c2ccccc2)nc1-c1ccc(F)cc1	82 to 94 °C
NC(=O)N(O)Cc1sccc1Sc1ccc(Cl)cc1	111 to 113 °C
C=C(CO)[C@H](C(=O)OC(c1ccccc1)c1ccccc1)N1C(=O)[C@@H]2N=C(c3ccccc3)O[C@@H]21	100 to 104 °C
CSc1c(N)nc(NCCCOC(C)C)nc1Cl	245 °C
CC1(C)CC(N(C=O)CCCCCCN(C=O)C2CC(C)(C)NC(C)(C)C2)CC(C)(C)N1	155 °C
CCc1cc(C2=CCN(CCCC(O)c3ccc(F)cc3)CC2)[nH]n1 (configuration not stated)	140 to 142 °C
CC(C)(OCc1coc(-c2ccc(Cl)cc2)n1)C(=O)O	144 to 145 °C
Cc1cc(Oc2ccc([N+](=O)[O-])c(N(C)C(=O)OC(C)(C)C)c2)cc(C)c1NC(=O)OC(C)(C)C	154 to 156 °C
CCc1ncc2n1-c1ccc(Cl)cc1C(c1ccccc1F)=NC2	140 to 143 °C
CCCCCCCCCCCCCCCCCCOc1cc(OCc2ccc3ccccc3n2)cc(N(CC(=O)OC)CC(=O)OC)c1	76 to 79 °C
N#Cc1ccc(N(Cc2ccc(O)cc2)n2cnnc2)cc1	228 to 230 °C
Cc1cccc2c1nc(COc1ccc(Cl)cc1)n2CCC(Cc1ccccc1)C(=O)NCCCN1CCCCC1 (configuration not stated)	91 to 93 °C
CCCCCCCCON=C(C(=O)OCC)c1csc(N)n1	77 to 78 °C
CCOCCOC(=O)C(=O)Nc1nc(-c2ccc(OCC)cc2)cs1	139 to 140 °C
CCCc1nc2c(N)nc3cc(OCCOCCOc4ccc5c(c4)nc(N)c4nc(CCC)sc45)ccc3c2s1	186 to 189 °C
Cc1cc2c(c(Cc3c[nH]cn3)c1)OC(C)(C)OC2	152 to 155 °C
CCCCOc1cc(/C=C(\OCC)C(=O)O)ccc1OCCc1ccc(OS(C)(=O)=O)c(Cl)c1	113 °C
CS(=O)(=O)N1CCN([C@@H](CNC(=O)c2ccc(OCc3cccc4ccccc34)cc2)C(=O)NO)CC1	170 °C
CC(C)[C@H](NC(=O)CS)C(=O)N1CCC[C@H]1C(=O)O	162 to 165 °C

Compound	melting point
CC(C)N(CCCCOCC(=O)O)c1nnc(-c2ccccc2)c(-c2ccccc2)n1	128 to 130 °C
CCC(=O)OC1CCC2C3CCC4=CC(=O)CCC4(CO)C3CCC12C (configuration not stated)	160 to 162 °C
COC(=O)c1sc2cccc(Cl)c2c1Br	120 to 122 °C
COc1cc(C(F)(F)F)cc(OC)n1	26 to 27 °C
N#CC(=NOCF)C(=N)NCl	97 to 98 °C
CC(C)(S)C(NC(=O)c1ccc(Cl)cc1)C(=O)O (configuration not stated)	174 °C
OCC1CC(F)C(n2cnc3c(Cl)ncnc32)O1 (configuration not stated)	157 to 158 °C
O=Cc1coc2cc(OC(=O)OCC(Cl)(Cl)Cl)c(OC(=O)OCC(Cl)(Cl)Cl)cc2c1=O	153 to 155 °C
CC(=O)NCC1CN(c2ccc(N3CCN(C(=O)CCN4CCOCC4)CC3)c(F)c2)C(=O)O1 (configuration not stated)	209 to 210 °C
COc1ccccc1NC(=O)Nc1nc(Nc2ccccc2-c2ccccc2)nc(N(CC(=O)O)Cc2ccc(C)cc2)n1	132 to 145 °C
CNC(=S)NCCOCc1c[nH]cn1	96 to 98 °C
CC(N1CCN(C=O)CC1)C(O)(Cn1cncn1)c1ccc(F)cc1F (configuration not stated)	118 to 120 °C
CC(=O)OC1CC2=CCC3C4CCC(C(C)CCC=C(C)C)C4(C)CCC3C2(C)C(OC(C)=O)C1 (configuration not stated)	133 to 134 °C
CC(C)(C)OC(=O)N[C@@H](CCC(=O)c1ccccc1)C(=O)OC(C)(C)C	85 °C
CCOCC(O)COc1ccc(NC(=O)CCSC)cc1 (configuration not stated)	79 to 81 °C
CC(C)[C@H](NC(=O)OCc1csc(N2CCOCC2)n1)C(=O)N[C@@H](Cc1ccccc1)[C@@H](O)C[C@H](Cc1ccccc1)NC(=O)OCc1cncs1	146 to 148 °C
N#CC(C#N)=CN(N=C(C#N)C#N)c1cccc(F)c1	134 to 135 °C
CC(C)(c1ccc(Oc2cccc(N3C(=O)C=CC3=O)c2)cc1)c1ccc(C(C)(C)c2ccc(Oc3cccc(N4C(=O)C=CC4=O)c3)cc2)cc1	192 to 193 °C
O=C(CO)c1ccc(F)cc1	116 to 117 °C
CC(CO)(CO)Nc1ccc([N+](=O)[O-])cc1	120 °C
COc1cc(OCc2ccccn2)ccc1/C=C/c1cc(/C=C/c2cc3ccccc3[nH]2)n[nH]1	151 to 152 °C
COc1cc(C(=O)CCCc2ccccc2)ccc1O	91 to 92 °C
CCc1nc2ccccc2c(=O)n1-c1ccccc1C	93 to 94 °C
O=C(OCC1CC1)c1ncn2c1[C@@H]1CCCN1C(=O)c1ccccc1-2	189 to 190 °C
CC(=O)Oc1c(C)c2c(-c3ccc(C(C)C)cc3)coc2c2ccccc12	118 to 119 °C

Further lines, results first:

melting point	Compound
186 to 188 °C	CS(=O)(=O)c1ccc(-n2nc(C(F)(F)F)cc2-c2nc3cccc(F)c3s2)cc1
148 °C	CCOC(=O)c1cn(CC)c2nc(SC)ncc2c1=O
146 to 148 °C	C1=CCC2=c3cnc4ccccc4c3=NC2=C1
134 to 136 °C	COc1cc2c(cc1OC)C(Cc1ccc([N+](=O)[O-])cc1)NCC2 (configuration not stated)
285 to 287 °C	Cc1ccc2ncn(C3CCC(=O)NC3=O)c(=O)c2c1 (configuration not stated)
209 to 210 °C	O=C(Cc1ccccc1C(=O)O)Nc1cccc(/C=C/c2nc(C3CCCC3)cs2)c1
279 to 280 °C	CCN(c1ccc(C(=O)O)cc1)c1cc2c3c(c1)CCCC3(C)CCC2
178 to 182 °C	CC(=O)OC(c1ccccc1)C1C(=O)NC1S(C)(=O)=O (mixture of isomers)
225 to 226 °C	Cc1cc(C=C2CCCC(=Cc3cc(C)c(O)c(C)c3)C2=O)cc(C)c1O
99.5 to 100 °C	CC(C)c1nc(CCOC2=CCC(C(C)(C)C)CC2)n(C)c1Sc1cc(Cl)cc(Cl)c1 (configuration not stated)
254 to 255 °C	CN(C)c1ccc2nc(-c3cccc4ccccc34)[nH]c(=O)c2c1
196 to 197 °C	O=C(O)C1(C(=O)O)CCC(c2c(-c3ccccc3)[nH]c3ccccc23)CC1
159 to 160 °C	CCOC(=O)c1cc2ccc(OC)cc2n1CCNC(C)=O
202 to 207 °C	Cc1ccc(=O)[nH]c1C
166 to 167 °C	O=c1ccn([C@@H]2C(F)=C(CCO)[C@@H](O)[C@H]2O)c(=O)[nH]1
178 to 179 °C	N=C(N)NCCCOc1ccc2c(c1)CC(CC(=O)O)C(=O)N2 (configuration not stated)
121 °C	OC(Cn1cncn1)(c1ccc(F)cc1)C1(Cl)CC1 (configuration not stated)
120 to 125 °C	COc1ccc(-c2cc(CBr)c(=O)n(Cc3ccc(F)cc3)n2)cc1F
215 °C	COc1cc(C(=O)c2c(C)c(C(=O)O)c3ccccn23)ccc1[N+](=O)[O-]
139 to 140 °C	CCCn1c(=O)c2nc(C(CC)c3ccc(OCC(=O)NCCN)cc3)[nH]c2n(CCC)c1=O (configuration not stated)
84 to 85 °C	CCSc1nn2ccccc2c1C(C)=O
177 to 178 °C	CC=CCn1c(C(=O)c2cc(C)cc(C#N)c2)c(C(C)C)c(=O)[nH]c1=O
185 to 186 °C	CSc1cc2cc(C)ccc2cc1C=Cc1cc2ccc(C)cc2cc1SC
174 to 179 °C	COc1ccccc1C=C1NC(=O)NC1=O
93 °C	CSc1csc2c1CCN(C)CC2c1ccccc1 (configuration not stated)
98 to 101 °C	Cc1cc(C)c(S(=O)(=O)Oc2nc(Nc3ccc(F)cc3F)c(C(=O)n3ccnc3)cc2F)c(C)c1

melting point	Compound
286 to 288 °C	CCC(C)C(C)C(=O)Nc1ccc2ncn3c(=O)c(C(=O)O)cnc3c2c1 (configuration not stated)
117 to 119 °C	Cc1ccc(CN2C(=O)C3(COc4cc5c(cc43)OCO5)c3ccccc32)o1 (configuration not stated)
157 to 159 °C	Cc1oc(-c2ccccc2)nc1CCOc1cccc2c1ccn2C(C)C(=O)O (configuration not stated)
68 °C	CCCOc1ccc(Cc2nn(-c3ccccc3Cl)c(=O)o2)cc1
216 to 218 °C	COc1ccc(C(=O)Sc2ccc(C(=O)O)cc2)cc1C1(C)CCCCC1
180 to 181 °C	Cc1nc(-n2cnn(CC3CC3)c2=O)sc1C(N)=O
218 to 219 °C	O=C(C1CCN(c2ccncn2)CC1)N1CCN(S(=O)(=O)c2ccc3cc(Cl)ccc3c2)CC1
110 °C	O=c1oc(Oc2ccc(Cl)cc2)nn1-c1ccccc1Cl
130 to 131 °C	COc1cc(N)c(Cl)cc1C(=O)NCC1CCN(CCCCCC(=O)c2ccc(C)cc2)CC1
213 to 214 °C	N=C1CC(=O)Oc2cc(OCC(O)COc3ccccc3)ccc21 (configuration not stated)
120 to 121 °C	O=C1c2ccc([N+](=O)[O-])cc2C(=O)N1CCSc1ccccc1
209 to 210 °C	Nc1nc2cccnc2c2c1nc(CF)n2CC1(O)CCOC1 (configuration not stated)
173 to 174 °C	Cc1cccc(C(=O)c2[nH]c3ccc(Cl)cc3c2CC(=O)O)c1
67 to 70 °C	Clc1ccc2c(c1)CCN(c1ccccc1)C2
44 to 45 °C	COC(=O)c1c(C)cccc1[N+](=O)[O-]
159 to 160 °C	O=C1N[C@H]2OC=N[C@@]12c1ccccc1
105 to 107 °C	CN1C(=O)C2C3CCC(C3)C2(c2cccc(Br)c2)C1=O (configuration not stated)
171 °C	O=C1CC=C(c2ccccc2Cl)c2cc(Cl)ccc2N1
102 °C	CCCc1ccc(S(=O)(=O)Nc2ccc3nc(C)oc3c2)cc1
164 to 166 °C	O=c1ccn(CCO)c(C(O)c2ccccc2F)c1OCc1ccccc1 (configuration not stated)
108 to 109 °C	CN1CC(CCN2CCN(c3ccccn3)CC2)OC1=O (configuration not stated)
153 °C	Cc1c(NC(=O)c2ccc(CC(=O)CC(C)C)cc2)ccc2cc(CN3CCCC3)cnc12
285 to 287 °C	CNc1nc(S(=O)(=O)Nc2c(Cl)cccc2Cl)n[nH]1
115 to 121 °C	Cc1nc2cc(-n3cccc3)ccc2o1
220 to 222 °C	Cc1ccc(-c2ccc(C(=O)Nc3ccc4nc(CN(C)C)ccc4c3)cn2)cc1
182 to 184 °C	O=c1c(-c2cccc(C(F)(F)F)c2)c[nH]n1-c1cccc(Cl)c1
